# Laboratory results taken from patent US20230131966A1, “FUNGICIDAL AMIDES” (FMC Corporation, priority 2020, published 2023).
# Key:
# Format in all cases: in vivo
# Zymoseptoria tritici = test: Test C: wheat leaf blotch control on wheat seedlings; details: 250 ppm, wheat seedlings, 100 = 100% disease control, 0 = no control; for pest or weed control at 250 ppm: Zymoseptoria tritici, read-out: Test C disease control rating
# Phakopsora pachyrhizi = test: Test A: Asian soybean rust control on soybean seedlings; details: 250 ppm, soybean seedlings, 100 = 100% disease control, 0 = no control; for pest or weed control at 250 ppm: Phakopsora pachyrhizi, read-out: Test A disease control rating
# [1] = tested on: Erysiphe graminis f. sp. tritici; test: Test G: wheat powdery mildew control on wheat seedlings; details: 250 ppm, 100 = 100% disease control, 0 = no control; for pest or weed control at 250 ppm: Blumeria graminis, read-out: Test G disease control rating
# Phytophthora infestans = test: whole plant or invertebrate; details: tomato seedlings, 100 = 100% disease control, 0 = no control; for pest or weed control at 250 ppm: Phytophthora infestans, in Solanum lycopersicum, read-out: Test F disease control rating, 250 ppm; for Test F disease control rating: 250 ppm
# Plasmopara viticola = test: Test D: grape downy mildew control on grape seedlings; details: 250 ppm, 100 = 100% disease control, 0 = no control; for pest or weed control at 250 ppm: Plasmopara viticola, read-out: Test D disease control rating
# Botrytis cinerea = test: Test E: tomato Botrytis control on tomato seedlings; details: 250 ppm, 100 = 100% disease control, 0 = no control; for pest or weed control at 250 ppm: Botrytis cinerea, read-out: Test E disease control rating
# [2] = tested on: Puccinia recondita f. sp. tritici; test: Test B: wheat leaf rust control on wheat seedlings; details: 250 ppm, wheat seedlings, 100 = 100% disease control, 0 = no control; for pest or weed control at 250 ppm: Puccinia recondita, read-out: Test B disease control rating
Compound,pest or weed control at 250 ppm (Zymoseptoria tritici),pest or weed control at 250 ppm (Phakopsora pachyrhizi),pest or weed control at 250 ppm [1],pest or weed control at 250 ppm (Phytophthora infestans),pest or weed control at 250 ppm (Plasmopara viticola),pest or weed control at 250 ppm (Botrytis cinerea),pest or weed control at 250 ppm [2],Test C disease control rating (Zymoseptoria tritici),Test A disease control rating (Phakopsora pachyrhizi),Test G disease control rating [1],Test F disease control rating (Phytophthora infestans),Test D disease control rating (Plasmopara viticola),Test E disease control rating (Botrytis cinerea),Test B disease control rating [2]
"COc1ccnc(C(=O)N[C@@H](C)C(=O)OC(C)c2ccc(C3CC3)cc2)c1O (mixture of isomers) [Compound 66, N-[(3-hydroxy-4-methoxy-2-pyridinyl)carbonyl]-L-alanine 1-(4-cyclopropylphenyl)ethyl ester]",73%,100%,21%,0%,93%,0%,100%,–,–,–,–,–,–,–
"COc1ccnc(C(=O)N[C@H](C(=O)OC(C)c2ccc(C3CCCCC3)cc2)C(C)C)c1OC(C)=O (mixture of isomers) [Compound 79, N-[[3-(acetyloxy)-4-methoxy-2-pyridinyl]carbonyl]-L-valine 1-(4-cyclohexylphenyl)ethyl ester]",100%,100%,0%,0%,11%,0%,100%,–,–,–,–,–,–,–
"CCC(OC(=O)[C@H](C)NC(=O)c1nccc(OC)c1OC(C)=O)C1CCCCC1 (mixture of isomers) [Compound 83, N-[[3-(acetyloxy)-4-methoxy-2-pyridinyl]carbonyl]-L-alanine 1-cyclohexylpropyl ester]",97%,100%,0%,0%,27%,0%,100%,–,–,–,–,–,–,–
"CCC(OC(=O)[C@H](C)NC(=O)c1nccc(OC)c1O)C1CCCCC1 (mixture of isomers) [Compound 84, N-[(3-hydroxy-4-methoxy-2-pyridinyl)carbonyl]-L-alanine 1-cyclohexylpropyl ester]",57%,100%,0%,0%,21%,0%,100%,–,–,–,–,–,–,–
"CCC(OC(=O)[C@H](C)NC(=O)c1nccc(OC)c1OC(C)=O)c1ccc(C2CCCCC2)cc1 (mixture of isomers) [Compound 100, N-[[3-(acetyloxy)-4-methoxy-2-pyridinyl]carbonyl]-L-alanine 1-(4-cyclohexylphenyl)propyl ester]",88%,100%,0%,0%,32%,0%,99%,–,–,–,–,–,–,–
"COc1ccnc(C(=O)N[C@@H](C)C(=O)OC(C)C2CCC(c3ccccc3)CC2)c1OC(C)=O (mixture of isomers) [Compound 104, N-[[3-(acetyloxy)-4-methoxy-2-pyridinyl]carbonyl]-L-alanine 1-(4-phenylcyclohexyl)ethyl ester]",93%,100%,0%,0%,65%,0%,100%,–,–,–,–,–,–,–
"COc1ccnc(C(=O)N[C@@H](C)C(=O)OC(C)c2ccccc2-c2ccccc2)c1O (single isomer, unassigned) [Compound 1]",–,–,–,–,–,–,–,81%,100%,0%,0%,36%,0%,89%
"COc1ccnc(C(=O)N[C@@H](C)C(=O)OC(C)c2ccccc2-c2ccccc2)c1O (single isomer, unassigned) [Compound 2]",–,–,–,–,–,–,–,73%,99%,0%,0%,63%,0%,55%
"COc1ccnc(C(=O)N[C@@H](C)C(=O)OC(C)c2cccc(-c3ccccc3)c2)c1O (single isomer, unassigned) [Compound 3]",–,–,–,–,–,–,–,83%,100%,0%,0%,32%,16%,99%
"COc1ccnc(C(=O)N[C@@H](C)C(=O)OC(C)c2cccc(-c3ccccc3)c2)c1O (single isomer, unassigned) [Compound 4]",–,–,–,–,–,–,–,28%,99%,0%,0%,56%,31%,41%
"COc1cccc(C(=O)N[C@@H](C)C(=O)OC(C)c2ccccc2Cc2ccccc2)c1OC(C)=O (single isomer, unassigned) [Compound 7]",–,–,–,–,–,–,–,0%,0%,0%,0%,35%,0%,0%
"COc1ccnc(C(=O)N[C@@H](C)C(=O)OC(C)c2ccccc2Cc2ccc(F)cc2)c1OC(C)=O (single isomer, unassigned) [Compound 11]",–,–,–,–,–,–,–,13%,0%,0%,0%,30%,0%,19%
"COc1ccnc(C(=O)N[C@@H](C)C(=O)OC(C)c2ccccc2Cc2ccc(F)cc2)c1OC(C)=O (single isomer, unassigned) [Compound 22]",–,–,–,–,–,–,–,85%,100%,0%,0%,61%,0%,99%
"COc1ccnc(C(=O)N[C@@H](C)C(=O)OC(C)c2ccc(F)cc2Cc2ccccc2)c1O (single isomer, unassigned) [Compound 23]",–,–,–,–,–,–,–,95%,100%,0%,0%,44%,0%,97%
"COc1ccnc(C(=O)N[C@@H](C)C(=O)OC(C)c2ccc(F)cc2Cc2ccccc2)c1O (single isomer, unassigned) [Compound 24]",–,–,–,–,–,–,–,5%,97%,0%,0%,61%,0%,68%
"COc1ccnc(C(=O)N[C@@H](C)C(=O)OC(C)c2ccc(F)cc2Cc2ccccc2)c1OC(C)=O (single isomer, unassigned) [Compound 37]",–,–,–,–,–,–,–,89%,100%,0%,0%,29%,0%,99%
"COc1ccnc(C(=O)N[C@@H](C)C(=O)OC(C)c2ccc(F)cc2Cc2ccccc2)c1OC(C)=O (single isomer, unassigned) [Compound 38]",–,–,–,–,–,–,–,53%,0%,0%,0%,44%,0%,41%
"COc1ccnc(C(=O)N[C@@H](C)C(=O)OC(C)c2ccccc2Cc2ccc(F)cc2)c1O (single isomer, unassigned) [Compound 39]",–,–,–,–,–,–,–,87%,100%,0%,0%,16%,57%,100%
"COc1ccnc(C(=O)N[C@@H](C)C(=O)OC(C)c2ccccc2Oc2ccc(F)cc2)c1OC(C)=O (single isomer, unassigned) [Compound 57]",–,–,–,–,–,–,–,88%,99%,0%,0%,16%,0%,98%
"COc1ccnc(C(=O)N[C@@H](C)C(=O)OC(C)c2ccc(F)cc2Cc2ccc(F)cc2)c1OC(C)=O (single isomer, unassigned) [Compound 58]",–,–,–,–,–,–,–,86%,98%,0%,0%,27%,0%,99%
